Assay results reported in PubChem BioAssay AID2060906 (Molecular Pharmacology Branch, DTP, NCI, 2025).

Test system: 485176-168-R4-J1-PDC complex spheroid growth
Assay: Anticancer human tumor 485176-168-R4-J1-PDC patient-derived pancreatic adenocarcinoma cell line growth inhibition [RAS]
Conditions: for IC50: curve of first compound; for viability, T/C: stronger effect = lower value
How it was run: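 Agents were tested in combination matrices in half-log decrements from a top concentration at or near clinical Cmax (10 microM if undetermined). Targets were multi-cell spheroids of tumour lines plus HUVEC and MSC stromal cells.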

[1] = second compound 0.000949 µM, first compound 0.0316 µM
[2] = second compound 0.000949 µM, first compound 0.1 µM
[3] = second compound 0.003 µM, first compound 0.0316 µM
[4] = second compound 0.003 µM, first compound 0.1 µM
[5] = second compound 0.00949 µM, first compound 0.0316 µM
[6] = second compound 0.00949 µM, first compound 0.1 µM
[7] = second compound 0.03 µM, first compound 0.0316 µM
[8] = second compound 0.03 µM, first compound 0.1 µM
[9] = second compound 0.0949 µM, first compound 0.0316 µM
[10] = second compound 0.0949 µM, first compound 0.1 µM
[11] = second compound 0.3 µM, first compound 0.0316 µM
[12] = second compound 0.3 µM, first compound 0.1 µM
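Also: spheroids exposed to compounds for seven days before readout.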
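For viability, T/C in this document: luminescence viability expressed relative to DMSO vehicle wells set as 100%.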

With `CC(C)n1nc(-c2ccc3oc(N)nc3c2)c2c(N)ncnc21` + CCn1c(-c2cc(N3CCN(C)CC3)cnc2C(C)OC)c2c3cc(ccc31)-c1csc(n1)CC(NC(=O)C1CC1C)C(=O)N1CCCC(N1)C(=O)OCC(C)(C)C2 the IC50 (second compound 0.000949 µM) was 0.0203 µM, the IC50 (second compound 0.003 µM) was 0.023 µM and the IC50 (second compound 0.00949 µM) was 0.0185 µM. For the same compound, the IC50 (second compound 0.03 µM) was 0.0138 µM, the IC50 (second compound 0.0949 µM) was 0.0109 µM and the IC50 (second compound 0.3 µM) was 0.00946 µM. It also gave a viability, T/C (second compound 0.000949 µM, first compound 0.000316 µM) of 98.5%, a viability, T/C (second compound 0.000949 µM, first compound 0.001 µM) of 93.7% and a viability, T/C (second compound 0.000949 µM, first compound 0.00316 µM) of 76.8%. It also gave a viability, T/C (second compound 0.000949 µM, first compound 0.01 µM) of 70.4%, a viability, T/C [1] of 37.4% and a viability, T/C [2] of 19.2%. It also gave a viability, T/C (second compound 0.003 µM, first compound 0.000316 µM) of 96.8%, a viability, T/C (second compound 0.003 µM, first compound 0.001 µM) of 89.6% and a viability, T/C (second compound 0.003 µM, first compound 0.00316 µM) of 93.3%. For the same compound, the viability, T/C (second compound 0.003 µM, first compound 0.01 µM) was 65.9%, the viability, T/C [3] was 44.4% and the viability, T/C [4] was 18.5%. The viability, T/C (second compound 0.00949 µM, first compound 0.000316 µM) was 97.1%, the viability, T/C (second compound 0.00949 µM, first compound 0.001 µM) was 89% and the viability, T/C (second compound 0.00949 µM, first compound 0.00316 µM) was 76.9%. For the same compound, the viability, T/C (second compound 0.00949 µM, first compound 0.01 µM) was 63.9%, the viability, T/C [5] was 38.4% and the viability, T/C [6] was 19.1%. For the same compound, the viability, T/C (second compound 0.03 µM, first compound 0.000316 µM) was 95.9%, the viability, T/C (second compound 0.03 µM, first compound 0.001 µM) was 81% and the viability, T/C (second compound 0.03 µM, first compound 0.00316 µM) was 63%. For the same compound, the viability, T/C (second compound 0.03 µM, first compound 0.01 µM) was 63.3%, the viability, T/C [7] was 34.8% and the viability, T/C [8] was 23.6%. The viability, T/C (second compound 0.0949 µM, first compound 0.000316 µM) was 94.3%, the viability, T/C (second compound 0.0949 µM, first compound 0.001 µM) was 84.8% and the viability, T/C (second compound 0.0949 µM, first compound 0.00316 µM) was 61.5%. For the same compound, the viability, T/C (second compound 0.0949 µM, first compound 0.01 µM) was 57.3%, the viability, T/C [9] was 30.9% and the viability, T/C [10] was 17.4%. The viability, T/C (second compound 0.3 µM, first compound 0.000316 µM) was 81.1%, the viability, T/C (second compound 0.3 µM, first compound 0.001 µM) was 77% and the viability, T/C (second compound 0.3 µM, first compound 0.00316 µM) was 68.2%. For the same compound, the viability, T/C (second compound 0.3 µM, first compound 0.01 µM) was 50.2%, the viability, T/C [11] was 25.9% and the viability, T/C [12] was 16.1%.

For `C[C@@H](NC(=O)c1ncnc(N)c1Cl)c1ncc(C(=O)Nc2cc(C(F)(F)F)c(Cl)cn2)s1` + CCn1c(-c2cc(N3CCN(C)CC3)cnc2C(C)OC)c2c3cc(ccc31)-c1csc(n1)CC(NC(=O)C1CC1C)C(=O)N1CCCC(N1)C(=O)OCC(C)(C)C2, the IC50 (second compound 0.000949 µM) was > 10 µM, the IC50 (second compound 0.003 µM) was > 10 µM and the IC50 (second compound 0.00949 µM) was > 10 µM. For the same compound, the IC50 (second compound 0.03 µM) was > 10 µM, the IC50 (second compound 0.0949 µM) was 2.38 µM and the IC50 (second compound 0.3 µM) was 4.37 µM. For the same compound, the viability, T/C [1] was 102%, the viability, T/C [2] was 92.3% and the viability, T/C (second compound 0.000949 µM, first compound 0.316 µM) was 83.9%. For the same compound, the viability, T/C (second compound 0.000949 µM, first compound 1 µM) was 67.5%, the viability, T/C (second compound 0.000949 µM, first compound 3.16 µM) was 83.7% and the viability, T/C (second compound 0.000949 µM, first compound 10 µM) was 83.8%. For the same compound, the viability, T/C [3] was 86.6%, the viability, T/C [4] was 97.8% and the viability, T/C (second compound 0.003 µM, first compound 0.316 µM) was 92.4%. For the same compound, the viability, T/C (second compound 0.003 µM, first compound 1 µM) was 84.1%, the viability, T/C (second compound 0.003 µM, first compound 3.16 µM) was 71.7% and the viability, T/C (second compound 0.003 µM, first compound 10 µM) was 58.1%. For the same compound, the viability, T/C [5] was 92.7%, the viability, T/C [6] was 90.9% and the viability, T/C (second compound 0.00949 µM, first compound 0.316 µM) was 74%. The viability, T/C (second compound 0.00949 µM, first compound 1 µM) was 74%, the viability, T/C (second compound 0.00949 µM, first compound 3.16 µM) was 57.6% and the viability, T/C (second compound 0.00949 µM, first compound 10 µM) was 56.2%. For the same compound, the viability, T/C [7] was 92.1%, the viability, T/C [8] was 77.6% and the viability, T/C (second compound 0.03 µM, first compound 0.316 µM) was 89.5%. The viability, T/C (second compound 0.03 µM, first compound 1 µM) was 55.8%, the viability, T/C (second compound 0.03 µM, first compound 3.16 µM) was 56.3% and the viability, T/C (second compound 0.03 µM, first compound 10 µM) was 43.8%. It also gave a viability, T/C [9] of 78.2%, a viability, T/C [10] of 80.3% and a viability, T/C (second compound 0.0949 µM, first compound 0.316 µM) of 59.7%. For the same compound, the viability, T/C (second compound 0.0949 µM, first compound 1 µM) was 51.4%, the viability, T/C (second compound 0.0949 µM, first compound 3.16 µM) was 56.1% and the viability, T/C (second compound 0.0949 µM, first compound 10 µM) was 36.2%. For the same compound, the viability, T/C [11] was 85.4%, the viability, T/C [12] was 69.6% and the viability, T/C (second compound 0.3 µM, first compound 0.316 µM) was 65.5%. It also gave a viability, T/C (second compound 0.3 µM, first compound 1 µM) of 58.7%, a viability, T/C (second compound 0.3 µM, first compound 3.16 µM) of 57% and a viability, T/C (second compound 0.3 µM, first compound 10 µM) of 42.3%.
